From ChEMBL document CHEMBL1201862, “PubChem BioAssay data set” (2004)
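1) Cells in 96-well plates. 2) Compound, 48 h, 5 concentrations. 3) Linear interpolation between surrounding doses. 4) Unreached endpoint = highest concentration. Abbreviation: GI50, concentration required for 50% inhibition of growth.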 Active and inactive are the calls of the source. No stated cut-off is given here; in the data, active = GI50 up to about 1.1 µM and inactive = higher.

Experiments:
Assay in all cases: DTP human tumour cell line panel, 48 h
U-251 = system: U-251
UACC-257 = system: UACC-257
TK-10 = system: TK-10
DU-145 = system: DU-145
RPMI-8226 = system: RPMI-8226
A549 = system: A549
MDA-MB-231 = system: MDA-MB-231
CCRF-CEM = system: CCRF-CEM
HCT-15 = system: HCT-15
SK-MEL-5 = system: SK-MEL-5
EKVX = system: EKVX
MCF7 = system: MCF7
HOP-62 = system: HOP-62
ACHN = system: ACHN
MDA-MB-435 = system: MDA-MB-435
A498 = system: A498
Hs-578T = system: Hs-578T
M14 = system: M14
SN12C = system: SN12C
SNB-78 = system: SNB-78

SMILES | GI50 (U-251) | GI50 (UACC-257) | GI50 (TK-10) | GI50 (DU-145) | GI50 (RPMI-8226) | GI50 (A549) | GI50 (MDA-MB-231) | GI50 (CCRF-CEM) | GI50 (HCT-15) | GI50 (SK-MEL-5) | GI50 (EKVX) | GI50 (MCF7) | GI50 (HOP-62) | GI50 (ACHN) | GI50 (MDA-MB-435) | GI50 (A498) | GI50 (Hs-578T) | GI50 (M14) | GI50 (SN12C) | GI50 (SNB-78)
COc1ccc(C(=O)CCN(C)C)c2ccccc12 | 18.2 µM (inactive) | > 40.9 µM (inactive) | > 38.3 µM (inactive) | 28.2 µM (inactive) | 0.504 µM (active) | > 58.2 µM (inactive) | 19.1 µM (inactive) | 2.79 µM (inactive) | 21.4 µM | > 56.8 µM (inactive) | 24.7 µM (inactive) | 4.63 µM (inactive) | 24.1 µM (inactive) | 18.3 µM (inactive) | 19.5 µM (inactive) | 27.4 µM (inactive) | 23.6 µM (inactive) | 34.3 µM (inactive) | 21.5 µM (inactive) | –
Cc1nnc(N)s/c1=N/O | > 100 µM (inactive) | 56.9 µM (inactive) | > 100 µM (inactive) | > 100 µM (inactive) | > 100 µM (inactive) | > 100 µM (inactive) | > 100 µM (inactive) | > 100 µM (inactive) | > 100 µM | 56.9 µM (inactive) | > 100 µM (inactive) | > 100 µM (inactive) | > 100 µM (inactive) | > 100 µM (inactive) | > 100 µM (inactive) | > 100 µM (inactive) | > 100 µM (inactive) | > 100 µM (inactive) | > 100 µM (inactive) | –
CC(=O)OCC1OC(OC2CC3C(C)(C)C(OC(C)=O)CC[C@]3(C)C3CCC45CC4(CCC5[C@@H](C)C[C@H](O)C(O)C(C)(C)O)[C@]23C)C(O)C(O)C1O (some centres undefined) | > 10 µM (inactive) | > 10 µM (inactive) | > 10 µM (inactive) | > 10 µM (inactive) | 5.18 µM (inactive) | > 10 µM (inactive) | > 10 µM (inactive) | > 10 µM (inactive) | > 10 µM | > 10 µM (inactive) | > 10 µM (inactive) | 6.61 µM (inactive) | > 10 µM (inactive) | > 10 µM (inactive) | > 10 µM (inactive) | > 10 µM (inactive) | > 10 µM (inactive) | > 10 µM (inactive) | > 10 µM (inactive) | –
O=C1c2ccccc2-c2nc(/C=C/c3ccccc3)cc3c2c1nc1ccccc13 | 17.7 µM (inactive) | 89.5 µM (inactive) | 81.8 µM (inactive) | 68.4 µM (inactive) | 15.1 µM (inactive) | 30.6 µM (inactive) | 24.4 µM (inactive) | 24.4 µM (inactive) | 2.52 µM | 2.32 µM (inactive) | 53.8 µM (inactive) | 19.1 µM (inactive) | 16.3 µM (inactive) | 26.4 µM (inactive) | 13.9 µM (inactive) | 60.1 µM (inactive) | 12.3 µM (inactive) | 26.2 µM (inactive) | 33.2 µM (inactive) | –
COc1cc2c(cc1OC)[C@@H](C(O)c1ccccc1)NCC2 (some centres undefined) | > 100 µM (inactive) | > 100 µM (inactive) | > 100 µM (inactive) | – | – | > 100 µM (inactive) | – | > 100 µM (inactive) | > 100 µM | > 100 µM (inactive) | > 100 µM (inactive) | – | > 100 µM (inactive) | > 100 µM (inactive) | – | > 100 µM (inactive) | – | > 100 µM (inactive) | > 100 µM (inactive) | > 100 µM (inactive)
COc1cccc(C2SCc3nc4ccccc4n32)c1 (centres undefined) | 76.6 µM (inactive) | 44.3 µM (inactive) | 14.7 µM (inactive) | – | – | 34.8 µM (inactive) | – | > 100 µM (inactive) | 38.8 µM | 21.1 µM (inactive) | 46.3 µM (inactive) | – | > 100 µM (inactive) | 39.1 µM (inactive) | – | 38 µM (inactive) | – | 77.1 µM (inactive) | 99.1 µM (inactive) | > 100 µM (inactive)
